“Also recorded” adds a separate entry of the source. Where two headings read alike, the source gives them in different places.
Experiments:
γ-secretase [1] = assay: In vitro γ-secretase assay (in vitro model of amyloidosis): CTF-γ from membrane-bound APP, H4-APPswe cells; assay type: biochemical, human
Experimental: (§1) For assessment of γ-secretase activity, cell monolayers were rinsed twice with ice-cold PBS on ice, scraped from tissue culture dishes and centrifuged (1,500 rpm, 10 min, 4° C.). Cell pellets were then resuspended (0.5 ml/10 cm dish) in homogenization buffer (10 mM MOPS pH 7.0, 10 mM potassium chloride, 1× complete protease inhibitor (PI) (Roche Molecular Biochemicals, Germany) and homogenized by passing cell suspensions through a 23-gauge needle 10 times. Homogenates were then centrifuged (2,500 rpm, 15 min at 4° C.) to remove unbroken cells and nuclei. The supernatant (membrane and post-nuclear supernatant) was then centrifuged (14,000 rpm, 20 min, 4° C.) and rinsed in homogenization buffer. Membranes were then resuspended (0.5 ml/10 cm dish) in assay buffer (150 mM sodium citrate pH 6.4; 1×PI) and incubated at (2 hr) at 37° C. in 25 μl of incubation buffer per assay sample to allow for generation of the CTF-γ cleavage product; negative control samples were maintained on ice. CTF-γ cleavage products (as well as CTF-α and CTF-β) were resolved electrophoretically in 10-20% Tris-Tricine gels (Bio Rad Laboratories, CA), and identified using an anti APP polyclonal C8 antibody. Immunoreactivities were visualized autoradiographically using a chemiluminescence detection kit (SuperSignal; Pierce Biotechnology, Rockford, Ill.). […]

α-secretase = assay: Cell-based α-secretase activity assay (fluorometric kit) in pinitol-treated H4 cells; parameters: species or system human; settings: cultured H4 cells, increasing concentrations of pinitol, 24 and 48 hours
Experimental: (§2) In this study, cultured human glioma H4-cells with constitutive APP751 expression were treated with increasing concentrations of pinitol, and then cellular ∀- and ∃-secretase activity as well as A∃ peptide contents in the conditioned media were assessed in response to pinitol treatment over time. Growth and maintenance of H4-APP751 cells were as described in Qin et al. (J. Biol. Chem. 2002; 278:50970-50977). Confluent cell cultures were treated with increasing concentration of pinitol. At 24 and 48 hours after pinitol treatment, cells were harvested for secretase activity assays and conditioned media were collected for measurement of A∃ peptide contents. The ∀-secretase (FIG. 7A) and ∃-secretase (FIG. 7B) activities in pinitol-treated cells were measured using commercially available kits (R&D Systems). Harvested cells were homogenized in supplied buffers and homogenate was added to a secretase-specific APP peptide conjugated to the reporter molecules EDANS and DABCYL. […] Cleavage of the peptide by the secretase physically separates the EDANS and DABCYL, allowing the release of a fluorescent signal. The level of ∀-secretase (FIG. 7A) or ∃-secretase (FIG. 7B) enzymatic activity is proportional to the fluorometric reaction in the homogenate. […] A∃ peptides were measured by ELISA as described above. […]

β-secretase = biological target: T1, β-secretase (Homo sapiens, UniProt P56817); assay: Cell-based β-secretase activity assay (fluorometric kit) in pinitol-treated H4 cells; settings: cultured H4 cells, increasing concentrations of pinitol, 24 and 48 hours
T1 construct: endogenous in cells; host or cells: H4-APP751 human glioma cells (homogenate)
Experimental: as §2

γ-secretase [2] = assay: Aβ peptide content in conditioned media by ELISA (γ-secretase readout) in pinitol-treated H4 cells; assay type: cell-based, human
Experimental: For quantitative assessment of A∃ peptides (Xiang et al. Gene Expr. 2002, 10:271-278), frozen pulverized brain tissues were homogenized in 5.0 M guanidine buffer, diluted (1:10) in phosphate-buffered saline containing 0.05% (v/v) Tween-20 and 1 mM Pefabloc protease inhibitors (Roche Biochemicals, Indianapolis, Ind.) and centrifuged for 20 min at 4° C. Total Aβ1-40 or Aβ1-42 was measured by sandwich ELISA (BioSource, Camarillo, Calif.) according to the manufacturer's instructions. Serum specimens were assessed directly using the same ELISA according to the manufacturer's instructions.
In this study, cultured human glioma H4-cells with constitutive APP751 expression were treated with increasing concentrations of pinitol, and then cellular ∀- and ∃-secretase activity as well as A∃ peptide contents in the conditioned media were assessed in response to pinitol treatment over time. Growth and maintenance of H4-APP751 cells were as described in Qin et al. (J. Biol. Chem. 2002; 278:50970-50977). Confluent cell cultures were treated with increasing concentration of pinitol. At 24 and 48 hours after pinitol treatment, cells were harvested for secretase activity assays and conditioned media were collected for measurement of A∃ peptide contents. The ∀-secretase (FIG. 7A) and ∃-secretase (FIG. 7B) activities in pinitol-treated cells were measured using commercially available kits (R&D Systems). Harvested cells were homogenized in supplied buffers and homogenate was added to a secretase-specific APP peptide conjugated to the reporter molecules EDANS and DABCYL. […] Cleavage of the peptide by the secretase physically separates the EDANS and DABCYL, allowing the release of a fluorescent signal. The level of ∀-secretase (FIG. 7A) or ∃-secretase (FIG. 7B) enzymatic activity is proportional to the fluorometric reaction in the homogenate. […] A∃ peptides were measured by ELISA as described above. In FIG. 7, each value represents Mean±SEM; n=4 cultures per assay; * P<0.05 vs. control (no pinitol treatment) group (2-tailed Student's t test).

γ-secretase [3] = assay: In vitro γ-secretase assay in extracts obtained from CHO-APPswe cells; assay type: biochemical; settings: data not shown
Experimental: as §1

[4] = LDH assay of cell toxicity; assay type: cell-based; settings: all concentrations tested, 50-250 μM, not shown
NOTCH [5] = assay: γ-secretase-mediated cleavage of NOTCH in H4-APPswe cells; assay type: cell-based, human; settings: FIG. 8B
Description: The selectivity of D-pinitol action was further addressed by examining its effect on cleavage of the signaling molecule NOTCH. The “gamma-secretase” complex, consisting of presenilins (PS), nicastrin (NCT), APH-1 and PEN-2, catalyzes the intramembranous proteolysis of truncated Notch derivatives to generate NICD, respectively.

NOTCH [6] = assay: Cleavage of NOTCH in the neocortex of Tg2576 transgenic mice; assay type: in vivo, mouse; settings: compared to insulin-resistant and control Tg2576 mice, data not shown
Tg2576 mice [7] = assay: Aβ peptide content (ELISA) in the brain of Tg2576 mice on high-fat diet plus pinitol; assay type: in vivo, mouse; settings: 12-month old female Tg2576 mice, high-fat diet plus pinitol in drinking water (600 mg/liter), from 4 months of age
Description: This study assessed A∃ peptide contents in the brain and in the periphery (serum) of 12-month old female Tg2576 mice in response to chronic treatment, initiating at 4 month of age, with a high-fat (HF) diet or HF diet plus pinitol (N=3-4 per group). Gender-age-matched Tg2576 mice maintained on standard rodent laboratory diet (LF diet) served as controls. High-fat diet and standard laboratory diet containing equal % of cholesterol per g/diet were purchased from Research Diet, Inc. (New Brunswick, N.J.) (Ho et al, FASEB J 2004; 18:902-204). Pinitol (Humanetics Corp.) was provided by incorporation into drinking water (600 mg pinitol/liter water), which is available ad libitum. […] For quantitative assessment of A∃ peptides (Xiang et al. Gene Expr. 2002, 10:271-278), frozen pulverized brain tissues were homogenized in 5.0 M guanidine buffer, diluted (1:10) in phosphate-buffered saline containing 0.05% (v/v) Tween-20 and 1 mM Pefabloc protease inhibitors (Roche Biochemicals, Indianapolis, Ind.) and centrifuged for 20 min at 4° C. Total Aβ1-40 or Aβ1-42 was measured by sandwich ELISA (BioSource, Camarillo, Calif.) according to the manufacturer's instructions. Serum specimens were assessed directly using the same ELISA according to the manufacturer's instructions.

[8] = tested on: insulin receptor signal transduction; assay: Insulin receptor signal transduction in the brain of Tg2576 mice; assay type: in vivo, mouse
GSK-3 = GSK-3 activity in the brain of Tg2576 mice; assay type: in vivo, mouse; settings: Tg2576 mice treated with D-pinitol
Tg2576 mice [9] = assay: Cognitive function in Tg2576 mice; assay type: in vivo, mouse
[10] = cited from earlier work
[11] = insulin-resistant and hyperinsulinemic monkeys; cited from earlier work
[12] = history of use, animal and human clinical scientific studies; cited from earlier work
[13] = conditioned culture media, ELISA, increasing concentrations of pinitol
[14] = 80 mg/kg/day in drinking water from six months of age, 12-month old Tg2576 mice

T1 sequence (P56817 46-501): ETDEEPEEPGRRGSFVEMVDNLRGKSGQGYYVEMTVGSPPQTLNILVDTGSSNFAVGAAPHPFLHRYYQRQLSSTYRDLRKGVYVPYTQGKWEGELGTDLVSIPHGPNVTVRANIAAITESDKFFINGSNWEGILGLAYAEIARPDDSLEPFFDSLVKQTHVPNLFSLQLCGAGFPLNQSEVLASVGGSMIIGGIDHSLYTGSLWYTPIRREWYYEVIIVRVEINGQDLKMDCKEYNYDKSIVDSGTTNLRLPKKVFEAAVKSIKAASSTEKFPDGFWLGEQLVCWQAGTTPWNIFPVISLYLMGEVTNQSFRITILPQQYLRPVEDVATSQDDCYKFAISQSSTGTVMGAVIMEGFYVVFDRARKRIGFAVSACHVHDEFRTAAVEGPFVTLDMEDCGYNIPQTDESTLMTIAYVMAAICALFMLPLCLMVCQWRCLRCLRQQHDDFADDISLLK

In the case of OC1C(O)C(O)C(O)C(O)C1O (stereo not drawn) [d-chiro-inositol, reference compound], the “β-amyloid formation in the in vitro system” value (γ-secretase [1]; in vitro amyloidosis system) was “no inhibitory effect”.
With CO[C@H]1[C@H](O)[C@@H](O)[C@@H](O)[C@H](O)[C@@H]1O [D-pinitol] the α-secretase activity (α-secretase) was “no effect; also recorded: does not influence”, the β-secretase activity (β-secretase) was “no effect; also recorded: does not influence” and the Aβ1-40 production (γ-secretase [2]; [13]) was “dose-dependent inhibition”. For the same molecule, the Aβ1-42 production (γ-secretase [2]; [13]) was “dose-dependent inhibition”, the γ-secretase activity (γ-secretase [2]; cultured H4 cells, read out as Aβ1-40 and Aβ1-42 in conditioned media) was “robust inhibitory effect” and the “formation of the ~7 kDa CTF-γ APP fragment” value (γ-secretase [1]; H4-APPswe cells, membrane-bound APP) was “blocked; also recorded: selective reduction”. The “Aβ1-40 peptide in the same tissue culture” value (γ-secretase [3]; CHO-APPswe cells) was “corresponding reduction”, the “formation of the ~7 kDa CTF-γ APP” value (γ-secretase [3]; extracts from CHO-APPswe cells) was “blocked in a dose dependent fashion” and the “cell toxicity (LDH assay)” value [4] was “no detectable cell toxicity”. For the same molecule, the “cleavage of NOTCH” value (NOTCH [5]) was “no inhibitory effect”, the “cleavage of NOTCH in the neocortex” value (NOTCH [6]) was “no inhibitory effect” and the “β-amyloidogenesis in the brain” value (Tg2576 mice [7]) was “amelioration”. For the same molecule, the “β-amyloidogenesis in the brain” value (Tg2576 mice [7]; listed as pinitol) was “reduced”, the PI3K-p85α [8, 14] was “increased” and the S473-AKT [8, 14] was “increased”. For the same molecule, the “total IRβ” value [8, 14] was “not”, the “Y1162/1163-phosphorylated IRβ” value ([8]; 80 mg/kg/day in drinking water from six months of age, 12-month old Tg2576 mice, vs insulin resistant and control mice) was “increased” and the “insulin receptor signal transduction in the brain” value ([8]; Tg2576 mice treated with D-pinitol) was “restoration”. The “GSK-3 activity in the brain” value (GSK-3) was “restoration”, the cognitive impairment (Tg2576 mice [9]; NIDDM-like insulin resistant Tg2576 mice) was “beneficially influences” and the cognitive functions (Tg2576 mice [9]; Tg2576 mice, 80 mg/kg body weight per day in drinking water, preliminary studies) was “promotes”. The blood glucose concentration ([10]; normal rats given glucose) was “lower”, the blood glucose concentration ([10]; streptozotocin-induced diabetic rats) was “lower” and the “rate of glucose disappearance” value [11] was “increased”. For the same molecule, the “toxicity and safety in man” value [12] was “non-toxic and safe”.

Source: US9254273B2, “Compositions and methods for treating Alzheimer's disease and related disorders and promoting a healthy nervous system” (Icahn School of Medicine at Mount Sinai, priority 2004, dated 2016)
